From PMC8583042, “New Hybrid Compounds Combining Fragments of Usnic Acid and Thioether Are Inhibitors of Human Enzymes TDP1, TDP2 and PARP1” (International Journal of Molecular Sciences, 2021) come the findings set out here.

Data set [1] in a line: Colorimetric cytotoxicity test, HEK293FT. The data set is classed as cell-based. The conditions noted are these: human, HEK293FT cells, intrinsic cytotoxicity. The text has this:
(§1) The low intrinsic cytotoxicity of the additional drug component in the clinically used anticancer cocktails with traditional drugs is very important for treatment. This approach in chemotherapy can reduce the potential resulting toxic load on the body in the case of a combined action of these inhibitors on the activity of several targets. […] The effects of the tested compounds on cell survival are shown on Figure 4 and the CC50 values for three cell lines are shown in Table 1. The intrinsic cytotoxicity of a number of the studied compounds is quite high, namely, they have close IC50 values against the TDP1 and CC50 values on one or several studied cell lines. Most of the compounds generally were more toxic for the HEK293FT and HeLa cell lines than for the HEK293A cell line (Table 1 and Figure 4). The cytotoxicity of the three leader compounds, 7g, 10a, and 7h, was quite high. […] Compound 10b was one of the least toxic among the ten tested compounds.
(§2) Cytotoxicity of the compounds was examined against human cell lines HEK293A (human embryonic kidney)—WT, TDP1 deficient (Tdp1-/-), PARP1 deficient (PARP1-/-), and HeLa (cervical cancer) using an EZ4U colorimetric test (Biomedica, Vienna, Austria). The HEK293A cell line was obtained from Thermo Fisher Scientific (Waltham, MA, USA), and the HeLa cell line was obtained from the Russian Cell Culture Collection (RCCC) Institute of Cytology RAS, St. Petersburg, Russia. The cells were grown in DMEM/F12 medium (Gibco, Thermo Fisher Scientific, Waltham, MA, USA), with 1x GlutaMAX (Gibco, Thermo Fisher Scientific, Waltham, MA, USA), 50 IU/mL penicillin, 50 μg/mL streptomycin (MP Biomedicals), and in the presence of 10% fetal bovine serum (Biolot, Saint-Petersburg, Russia) in a 5% CO2 atmosphere. Cells were grown in the presence of 1% DMSO in the control wells. After the formation of a 30–50% monolayer, the tested compounds were added to the medium, and the cell culture was monitored for 3 days. The values were normalized to their own control in each case. At least three independent experiments were carried out. The 50% cytotoxic concentration (CC50) was defined as the compound concentration that reduced the cell viability by 50% when compared to the untreated controls. The compound concentration that caused 50% cell growth inhibition was determined using OriginPro 8.6.0 software (OriginLab, Northampton, MA, USA). The measurements were carried out in three independent experiments.

For data set [2], the system named is HEK293 wild type and TDP1-/- and PARP1-/- cell lines. Kind of data set: Joint action of 10a and Tpc on HEK293 wild type, TDP1-/- and PARP1-/- cells. The data set is classed as cell-based, human. The conditions noted are these: data not shown. The text has this: (§3) In our previous works, we checked the cytotoxic effect of Tpc and the TDP1 inhibitors—monoterpene 3-carene-derived compounds [48, 49] and UA combined with monoterpenoids, measured separately and jointly with Tpc—using a panel of HEK293FT and HEK293A Tdp1 knockout isogenic clones. […] The data on the HEK293FT mutants were of low reproducibility, which is why we decided to change the basic cell line to HEK293A [49]. In this work, we created new PARP1-/- HEK293A cells using the CRISPR–Cas9 approach (Figure S27). […] We checked the intrinsic cytotoxicity of the leader compound (10a) on the HEK293 wild type and TDP1-/- and PARP1-/- cell lines using a colorimetric test (Figure 6). […] There was no difference between the WT and mutant cells.
(§4) Cytotoxicity of the compounds was examined against human cell lines HEK293A (human embryonic kidney)—WT, TDP1 deficient (Tdp1-/-), PARP1 deficient (PARP1-/-), and HeLa (cervical cancer) using an EZ4U colorimetric test (Biomedica, Vienna, Austria). […] After the formation of a 30–50% monolayer, the tested compounds were added to the medium, and the cell culture was monitored for 3 days. […] The compound concentration that caused 50% cell growth inhibition was determined using OriginPro 8.6.0 software (OriginLab, Northampton, MA, USA). […]

Data set [3] is described as follows: Colorimetric cytotoxicity test, HEK293A PARP1-/-. The data set is classed as cell-based. The following applies: human, PARP1-/- HEK293A cells; PARP1-/- cell line, intrinsic cytotoxicity (Figure 6); read-out: CC50.
Description: as §3, §4

A short description of data set [4]: EZ4U colorimetric cytotoxicity test, HEK293A. Format: cell-based. The conditions noted are these: human.
Description: as §1, §2

In data set [5] the test system is HeLa cells. Kind of data set: Cytotoxicity of the combination of 10a and topotecan on HeLa cells. Format: cell-based, human.
Description: TDP1 is able to cleave the TOP1–DNA complex, thus preventing the action of Tpc and decreasing the efficiency of this clinically used drug. The inhibition of TDP1 activity can increase the efficiency of Tpc. Next, we checked the cytotoxic effect of the combination of Tpc and examined the TDP1 inhibitors compared to Tpc alone on HeLa cells and HEK293 cells.
We observed the suppressed cell growth in the joint presence of the TDP1 inhibitor and Tpc on HeLa cells compared to Tpc alone (Figure 5). We observed the synergistic effect both when we titrated 10a with addition of fixed Tpc (1 μM or 2 μM) and vice versa when we titrated Tpc with addition of fixed 10a (5 μM). […] The CC50 value of Tpc decreased from 2 μM (only Tpc) to 0.7 μM (Tpc with 5 μM 10a).
as §2, with “The 50% cytotoxic concentration (CC50) was defined as the compound concentration that reduced the cell viability by 50% when compared to the untreated controls.” left out, “The measurements were carried out in three independent experiments.” left out

As for `CC(=O)C1=C(O)C=C2Oc3c(C(=O)C[S+]([O-])c4nc5ccccc5s4)c(O)c(C)c(O)c3[C@@]2(C)C1=O` (stereo partly drawn) [10a, (2R)-4-acetyl-10-[2-(1,3-benzothiazole-2-sulfinyl)acetyl]-5,11,13-trihydroxy-2,12-dimethyl-8-oxatricyclo[7.4.0.0^2,7]trideca-1(13),4,6,9,11-pentaen-3-one], the CC50 at 3 days in data set [1] was 15 ± 2 µM; in data set [3] it was 15 to 20 µM; in data set [4] (HEK293A cells, intrinsic cytotoxicity, 3 days, read-out: HEK293A CC50) it was 20 ± 2 µM; in data set [4] (wild-type HEK293A cells, HEK293 wild type, intrinsic cytotoxicity (Figure 6), read-out: CC50), 15 to 20 µM. For the same molecule, in data set [2], the “Effect of the joint presence of 10a and Tpc (in words)” value is “did not observe any effect”. Besides, in data set [5] (HeLa cells), the “Synergy with Tpc (in words)” value is “promising synergy”. Besides, in data set [5] (Homo sapiens, HeLa, 10a titrated with fixed 2 μM Tpc, read-out: CC50 of 10a with Tpc), the CC50 amounted to 3 µM.

One may read the CC50 as the concentration at which the toxic effect on the cells reaches its halfway point.
